# Experimental data: patent publication US8853258B2, “C-linked hydroxamic acid derivatives useful as antibacterial agents” (Pfizer Inc., priority 2009, dated 2014)
# Legend:
# [1] = target: Pseudomonas aeruginosa LpxC enzyme (Pseudomonas aeruginosa (strain ATCC 15692 / DSM 22644 / CIP 104116 / JCM 14847 / LMG 12228 / 1C / PRS 101 / PAO1), UniProt P47205); test: IC50 Assay, LpxC Enzyme from P. aeruginosa (PA LpxC Enzyme IC50); type: biochemical; details: P. aeruginosa LpxC enzyme; read-out: PA LpxC enzyeme IC50
# Procedure, shortened: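 Reaction run 1 h then stopped with 1N HCl. Conversion measured by RapidFire high-throughput mass spectrometry. IC50 derived from percent conversion relative to a no-enzyme control.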
# [2] = tested on: Acinetobacter baumanii/haemolyticus: Multidrug-resistant clinical isolate (AB-3167); test: MIC determination (CLSI), AB-3167; type: cell-based; details: Acinetobacter baumanii/haemolyticus multidrug-resistant clinical isolate AB-3167
# Procedure, shortened: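 Multidrug-resistant clinical isolate AB-3167 (A. baumannii/haemolyticus) tested for minimum inhibitory concentration following CLSI dilution susceptibility standards M7-A7 and M100-S18.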
# [3] = tested on: Escherichia coli EC-1: VOGEL, mouse virulent; test: MIC determination (CLSI), EC-1; type: cell-based; details: Escherichia coli EC-1 VOGEL, mouse virulent
# Procedure, shortened: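 E. coli Vogel, a mouse-virulent strain (EC-1), was tested. MICs were set by dilution susceptibility testing per CLSI standards M7-A7/M100-S18.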
# [4] = tested on: Klebsiella pneumoniae: Ciprofloxacin-resistant isolate, ESBL, clinical isolate (KP-3700); test: MIC determination (CLSI), KP-3700; type: cell-based
# Procedure, shortened: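 MIC measured by broth dilution according to CLSI M7-A7 and M100-S18 standards. Test organism was a ciprofloxacin-resistant, ESBL-expressing clinical isolate.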
# [5] = tested on: Pseudomonas aeruginosa UI-18: Wild-type (PA-7); test: MIC determination (CLSI), PA-7; type: cell-based; details: Pseudomonas aeruginosa UI-18 wild-type PA-7
# Procedure, shortened: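 MIC by dilution method per CLSI M7-A7 and M100-S18 guidelines. Strain: wild-type Pseudomonas aeruginosa UI-18.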
SMILES,IC50 [1],AB-3167 MIC [2],EC-1 MIC [3],KP-3700 MIC [4],PA-7 MIC [5]
CC(CCc1ccc(-c2ccc(C(=O)CO)cc2)cc1F)(C(=O)NO)S(C)(=O)=O (stereo not shown) [Example 183],0.387 nM,≧64 mg/L,2 µg/mL,4 µg/mL,2 µg/mL
CC(=O)c1ccc(-c2ccc(CCC(C)(C(=O)NO)S(C)(=O)=O)cc2)cc1F (stereo not shown) [Example 184],0.155 nM,32 µg/mL,4 µg/mL,2 µg/mL,0.5 µg/mL
CC(CCc1ccc(-c2ccc(N3CCNCC3)cc2)cc1)(C(=O)NO)S(C)(=O)=O (stereo not shown) [Example 185],6.22 nM,≧64 mg/L,16 µg/mL,≧64 mg/L,8 µg/mL
C[C@@](CCc1ccc(-c2ccc(C(=O)CO)cc2)cc1)(C(=O)NO)S(C)(=O)=O [Example 186],0.238 nM,≧64 mg/L,2 µg/mL,4 µg/mL,1 µg/mL
CC(=O)c1ccc(-c2ccc(CCC(C)(C(=O)NO)S(C)(=O)=O)c(F)c2)nc1 (stereo not shown) [Example 187],0.632 nM,≧64 mg/L,16 µg/mL,16 µg/mL,4 µg/mL
CC(=O)c1ccc(-c2ccc(CCC(C)(C(=O)NO)S(C)(=O)=O)c(F)c2)cn1 (stereo not shown) [Example 188],0.348 nM,≧64 mg/L,8 µg/mL,8 µg/mL,2 µg/mL
CC(=O)c1ccc(-c2ccc(CC[C@](C)(C(=O)NO)S(C)(=O)=O)cc2)nc1 [Example 189],0.711 nM,≧64 mg/L,16 µg/mL,16 µg/mL,4 µg/mL
CC(=O)c1ccc(-c2ccc(CC[C@](C)(C(=O)NO)S(C)(=O)=O)cc2)cn1 [Example 190],0.246 nM,≧64 mg/L,4 µg/mL,4 µg/mL,2 µg/mL
C[C@@](CCc1ccc(-c2ccc(CC(=O)N3CCC(O)CC3)cc2)cc1)(C(=O)NO)S(C)(=O)=O [Example 191],2.63 nM,≧64 mg/L,≧64 mg/L,≧64 mg/L,16 µg/mL
C[C@@](CCc1ccc(-c2ccc(C(=O)N3CCC(O)CC3)cc2)cc1)(C(=O)NO)S(C)(=O)=O [Example 192],3.39 nM,≧64 mg/L,≧64 mg/L,≧64 mg/L,16 µg/mL
CC(CCc1ccc(-c2ccc(N3CCN(S(C)(=O)=O)CC3)cc2)cc1)(C(=O)NO)S(C)(=O)=O (stereo not shown) [Example 193],1.08 nM,≧64 mg/L,16 µg/mL,≧64 mg/L,≧64 mg/L
CC(O)C(=O)c1ccc(-c2ccc(CCC(C)(C(=O)NO)S(C)(=O)=O)cc2)cc1 (stereo not shown) [Example 194],0.195 nM,≧64 mg/L,1 µg/mL,4 µg/mL,1 µg/mL
CC(CCc1ccc(-c2ccc3ncccc3c2)c(F)c1)(C(=O)NO)S(C)(=O)=O (stereo not shown) [Example 195],0.733 nM,32 µg/mL,1 µg/mL,4 µg/mL,2 µg/mL
CC(CCc1ccc(-c2ccc3c(c2)C(=O)NC3)cc1F)(C(=O)NO)S(C)(=O)=O (stereo not shown) [Example 196],0.631 nM,≧64 mg/L,4 µg/mL,16 µg/mL,4 µg/mL
CC(CCc1ccc(-c2cccnc2)c(F)c1)(C(=O)NO)S(C)(=O)=O (stereo not shown) [Example 197],7.11 nM,≧64 mg/L,≧64 mg/L,≧64 mg/L,8 µg/mL
C[C@@](CCc1ccc(-c2cccnc2)cc1)(C(=O)NO)S(C)(=O)=O [Example 198],3.84 nM,≧64 mg/L,≧64 mg/L,≧64 mg/L,8 µg/mL
C[C@@](CCc1ccc(-c2ccc3c(c2)CNC3=O)cc1)(C(=O)NO)S(C)(=O)=O [Example 199],0.266 nM,≧64 mg/L,8 µg/mL,32 µg/mL,2 µg/mL
